Experimental data as given in ChEMBL document CHEMBL3045033, “Synthesis of new potential anticancer agents based on 4-thiazolidinone and oleanane scaffolds” (Med Chem Res, 2012).
Several values for one entry are separate records, joined by “and”; a condition that tells them apart may be missing. Identical values can stand only once.

What was measured:
Type in all cases: functional
[1] = test system: NCI-H322M; experiment: Cytotoxicity against Homo sapiens (human) NCI-H322M cells after 48 hr by SRB assay
[2] = test system: SR; experiment: Cytotoxicity against Homo sapiens (human) SR cells at 10^-4 to 10^-8 M after 48 hr by SRB assay; conditions: read-out: pTGI (converted)
[3] = test system: NCI-H322M; experiment: Cytotoxicity against Homo sapiens (human) NCI-H322M cells at 10^-4 to 10^-8 M after 48 hr by SRB assay; conditions: read-out: pTGI (converted)
[4] = test system: NCI-H23; experiment: Cytotoxicity against Homo sapiens (human) NCI-H23 cells at 10^-4 to 10^-8 M after 48 hr by SRB assay; conditions: NCI-H23, 48 h, read-out: pTGI (converted)
[5] = test system: UO-31; experiment: Cytotoxicity against Homo sapiens (human) UO31 cells at 10^-4 to 10^-8 M after 48 hr by SRB assay; conditions: UO-31, 48 h, read-out: pTGI (converted)
[6] = test system: TK-10; experiment: Cytotoxicity against Homo sapiens (human) TK10 cells at 10^-4 to 10^-8 M after 48 hr by SRB assay; conditions: TK-10, 48 h, read-out: pTGI (converted)
[7] = test system: OVCAR-4; experiment: Cytotoxicity against Homo sapiens (human) OVCAR4 cells at 10^-4 to 10^-8 M after 48 hr by SRB assay; conditions: OVCAR-4, 48 h, read-out: pTGI (converted)
[8] = test system: HOP-62; experiment: Cytotoxicity against Homo sapiens (human) HOP62 cells at 10^-4 to 10^-8 M after 48 hr by SRB assay; conditions: HOP-62, 48 h, read-out: pTGI (converted)
[9] = test system: CCRF-CEM; experiment: Cytotoxicity against Homo sapiens (human) CCRF-CEM cells after 48 hr by SRB assay
[10] = Cytotoxicity against Homo sapiens (human) NCI-ADR-RES cells after 48 hr by SRB assay
[11] = test system: SK-OV-3; experiment: Cytotoxicity against Homo sapiens (human) SKOV3 cells at 10^-4 to 10^-8 M after 48 hr by SRB assay; conditions: SK-OV-3, 48 h, read-out: pTGI (converted)
[12] = test system: SN12C; experiment: Cytotoxicity against Homo sapiens (human) SN12C cells at 10^-4 to 10^-8 M after 48 hr by SRB assay; conditions: read-out: pTGI (converted)
[13] = test system: CCRF-CEM; experiment: Cytotoxicity against Homo sapiens (human) CCRF-CEM cells at 10^-4 to 10^-8 M after 48 hr by SRB assay; conditions: read-out: pTGI (converted)
[14] = test system: HCT-15; experiment: Cytotoxicity against Homo sapiens (human) HCT15 cells at 10^-4 to 10^-8 M after 48 hr by SRB assay; conditions: HCT-15, 48 h, read-out: pTGI (converted)
[15] = test system: M14; experiment: Cytotoxicity against Homo sapiens (human) M14 cells after 48 hr by SRB assay
[16] = test system: SW-620; experiment: Cytotoxicity against Homo sapiens (human) SW620 cells at 10^-4 to 10^-8 M after 48 hr by SRB assay; conditions: SW-620, 48 h, read-out: pTGI (converted)
[17] = test system: K562; experiment: Cytotoxicity against Homo sapiens (human) K562 cells at 10^-4 to 10^-8 M after 48 hr by SRB assay; conditions: K562, 48 h, read-out: pTGI (converted)
[18] = test system: UO-31; experiment: Cytotoxicity against Homo sapiens (human) UO31 cells after 48 hr by SRB assay
[19] = test system: SR; experiment: Cytotoxicity against Homo sapiens (human) SR cells assessed as cellular growth at 10^-5 M after 48 hr by SRB assay relative to untreated control
[20] = test system: SK-MEL-5; experiment: Cytotoxicity against Homo sapiens (human) SK-MEL-5 cells at 10^-4 to 10^-8 M after 48 hr by SRB assay; conditions: SK-MEL-5, 48 h, read-out: pTGI (converted)
[21] = test system: A498; experiment: Cytotoxicity against Homo sapiens (human) A498 cells after 48 hr by SRB assay
[22] = test system: LOX IMVI; experiment: Cytotoxicity against Homo sapiens (human) LOXIMVI cells after 48 hr by SRB assay
[23] = test system: Hs-578T; experiment: Cytotoxicity against Homo sapiens (human) Hs578T cells at 10^-4 to 10^-8 M after 48 hr by SRB assay; conditions: read-out: pTGI (converted)
[24] = test system: OVCAR-8; experiment: Cytotoxicity against Homo sapiens (human) OVCAR8 cells at 10^-4 to 10^-8 M after 48 hr by SRB assay; conditions: OVCAR-8, 48 h, read-out: pTGI (converted)
[25] = test system: MCF7; experiment: Cytotoxicity against Homo sapiens (human) MCF7 cells at 10^-4 to 10^-8 M after 48 hr by SRB assay; conditions: MCF7, 48 h, read-out: pTGI (converted)
[26] = test system: SF-295; experiment: Cytotoxicity against Homo sapiens (human) SF295 cells at 10^-4 to 10^-8 M after 48 hr by SRB assay; conditions: SF-295, 48 h, read-out: pTGI (converted)
[27] = test system: CAKI-1; experiment: Cytotoxicity against Homo sapiens (human) Caki1 cells at 10^-4 to 10^-8 M after 48 hr by SRB assay; conditions: CAKI-1, 48 h, read-out: pTGI (converted)
[28] = test system: EKVX; experiment: Cytotoxicity against Homo sapiens (human) EKVX cells after 48 hr by SRB assay
[29] = test system: BT-549; experiment: Cytotoxicity against Homo sapiens (human) BT549 cells at 10^-4 to 10^-8 M after 48 hr by SRB assay; conditions: BT-549, 48 h, read-out: pTGI (converted)
[30] = test system: SF-539; experiment: Cytotoxicity against Homo sapiens (human) SF539 cells after 48 hr by SRB assay
[31] = test system: HOP-62; experiment: Cytotoxicity against Homo sapiens (human) HOP62 cells after 48 hr by SRB assay
[32] = test system: U-251; experiment: Cytotoxicity against Homo sapiens (human) U251 cells after 48 hr by SRB assay
[33] = test system: HCT-116; experiment: Cytotoxicity against Homo sapiens (human) HCT116 cells at 10^-4 to 10^-8 M after 48 hr by SRB assay; conditions: HCT-116, 48 h, read-out: pTGI (converted)
[34] = test system: M14; experiment: Cytotoxicity against Homo sapiens (human) M14 cells at 10^-4 to 10^-8 M after 48 hr by SRB assay; conditions: M14, 48 h, read-out: pTGI (converted)
[35] = test system: A549; experiment: Cytotoxicity against Homo sapiens (human) A549 cells at 10^-4 to 10^-8 M after 48 hr by SRB assay; conditions: A549, 48 h, read-out: pTGI (converted)
[36] = test system: EKVX; experiment: Cytotoxicity against Homo sapiens (human) EKVX cells at 10^-4 to 10^-8 M after 48 hr by SRB assay; conditions: read-out: pTGI (converted)
[37] = Cytotoxicity against Homo sapiens (human) NCI-ADR-RES cells at 10^-4 to 10^-8 M after 48 hr by SRB assay; conditions: read-out: pTGI (converted)
[38] = test system: SF-539; experiment: Cytotoxicity against Homo sapiens (human) SF539 cells at 10^-4 to 10^-8 M after 48 hr by SRB assay; conditions: SF-539, 48 h, read-out: pTGI (converted)
[39] = Homo sapiens, NCI/ADR-RES, 48 h

Row | SMILES | TGI [2] [µM] | TGI [3] [µM] | TGI [4] [µM] | TGI [5] [µM] | TGI [6] [µM] | TGI [7] [µM] | TGI [8] [µM] | GI50 [9] [µM] | TGI [11] [µM] | TGI [12] [µM] | TGI [13] [µM] | TGI [14] [µM] | TGI [16] [µM] | TGI [17] [µM] | Activity [19] [%] | TGI [20] [µM] | TGI [23] [µM] | TGI [24] [µM] | TGI [25] [µM] | TGI [26] [µM] | other results
1 | COC(=O)[C@]12CCC(C)(C)C[C@H]1C1=CC[C@@H]3[C@@]4(C)CC/C(=N\O)C(C)(C)[C@@H]4CC[C@@]3(C)[C@]1(C)CC2 | 55 | > 100 | 38 | 45.7 | 97.7 | > 100 | 44.7 | 28.2 | > 100 | 42.7 | 81.3 | 55 | 40.7 | > 100 | -41.06 | 63.1 | 66.1 | > 100 | 40.7 | 37.2 | GI50 ([1]; Homo sapiens, NCI-H322M, 48 h): 72.4 µM; GI50 [10, 39]: 37.2 µM; GI50 ([15]; Homo sapiens, M14, 48 h): 23.4 µM; GI50 ([18]; Homo sapiens, UO-31, 48 h): 22.4 µM; GI50 ([21]; Homo sapiens, A498, 48 h): 28.2 µM; GI50 ([22]; Homo sapiens, LOX IMVI, 48 h): 19.5 µM; TGI [27]: 47.9 µM; GI50 ([28]; Homo sapiens, EKVX, 48 h): 28.2 µM; TGI [29]: > 100 µM; GI50 ([30]; Homo sapiens, SF-539, 48 h): 20.9 µM; GI50 ([31]; Homo sapiens, HOP-62, 48 h): 21.4 µM; GI50 ([32]; Homo sapiens, U-251, 48 h): 19.1 µM; TGI [33]: 56.2 µM; TGI [34]: 57.5 µM; TGI [35]: > 100 µM; TGI [36]: 72.4 µM; TGI [37]: > 100 µM; TGI [38]: 41.7 µM
2 | CC1(C)CC[C@@]23CC[C@]4(C)[C@@](OC2=O)([C@@H]3C1)[C@@H](Br)C[C@@H]1[C@@]2(C)CC/C(=N\O)C(C)(C)[C@@H]2CC[C@]14C | 7.94 | > 100 | > 100 | > 100 | 52.5 | > 100 | > 100 | 17.4 | > 100 | > 100 | > 100 | > 100 | > 100 | > 100 | -62.66 | > 100 | 24.5 | 53.7 | 60.3 | 36.3 | GI50 ([1]; Homo sapiens, NCI-H322M, 48 h): 20 µM; GI50 [10, 39]: 26.9 µM; GI50 ([15]; Homo sapiens, M14, 48 h): 9.12 µM; GI50 ([18]; Homo sapiens, UO-31, 48 h): 40.7 µM; GI50 ([21]; Homo sapiens, A498, 48 h): 49 µM; GI50 ([22]; Homo sapiens, LOX IMVI, 48 h): 10 µM; TGI [27]: > 100 µM; GI50 ([28]; Homo sapiens, EKVX, 48 h): 91.2 µM; TGI [29]: 69.2 µM; GI50 ([30]; Homo sapiens, SF-539, 48 h): 20 µM; GI50 ([31]; Homo sapiens, HOP-62, 48 h): 40.7 µM; GI50 ([32]; Homo sapiens, U-251, 48 h): 22.4 µM; TGI [33]: > 100 µM; TGI [34]: > 100 µM; TGI [35]: > 100 µM; TGI [36]: > 100 µM; TGI [37]: > 100 µM; TGI [38]: > 100 µM
3 | COC(=O)[C@]12CCC(C)(C)C[C@H]1C1=CC[C@@H]3[C@@]4(C)CC/C(=N\OC(=O)/C=C5/SC(=O)NC5=O)C(C)(C)[C@@H]4CC[C@@]3(C)[C@]1(C)CC2 | 3.89 | 32.4 | 12.3 | 2.95 | 8.13 | 6.92 | 36.3 | 2.45 | 34.7 | 18.6 | 7.76 | 11 | 3.89 | 8.13 | -22.69 | 17.8 | 6.76 | 15.1 | 10.7 | 20.9 | GI50 [1]: 58.9 µM and 18.2 µM; LC50 [9]: 37.2 µM; GI50 [10]: 61.7 µM and 7.59 µM; GI50 [15]: ≥ 20 µM; GI50 [18]: 5.75 µM and 1.48 µM; GI50 [21]: 17.8 µM and 2.57 µM; GI50 [22]: 6.61 µM and 1.48 µM; TGI [27]: 16.2 µM; GI50 [28]: 56.2 µM and 6.76 µM; TGI [29]: 9.12 µM; GI50 [30]: 7.59 µM and 1.78 µM; GI50 [31]: 64.6 µM and 20 µM; GI50 [32]: 6.76 µM and 1.78 µM; TGI [33]: 3.39 µM; TGI [34]: 5.13 µM; TGI [35]: 17.8 µM; TGI [36]: 22.4 µM; TGI [37]: 22.9 µM; TGI [38]: 3.63 µM
